In brackets after ≈: the same amount, converted by molar mass.
Tests used:
[1] = Selectivity index, ratio of CC50 for cytotoxicity against African green monkey Vero cells to EC50 for antiviral activity against Chikungunya virus infected in African green monkey Vero cells assessed as reduction in viral induced cell death; type: toxicity, cell-based; conditions: read-out: Ratio CC50/EC50
Chikungunya virus = test: Antiviral activity against Chikungunya virus infected in African green monkey Vero cells assessed as reduction in viral induced cell death incubated for 5 days by MTS reagent based absorbance method; type: functional, organism-based; conditions: 120 h
[2] = Cytotoxicity against African green monkey Vero cells assessed as reduction in overall metabolic activity incubated for 5 days by MTS reagent based absorbance method; type: toxicity, cell-based; conditions: chlorocebus sabaeus, time 5 day
[3] = Aqueous solubility of compound at pH 7.4 by HPLC analysis; type: physicochemical
[4] = Metabolic stability in human liver microsomes assessed as half-life preincubated for 5 mins followed by NADPH addition and measured upto 60 mins by HPLC-MS/MS analysis; type: ADME, Microsome; conditions: time < 65 min

SMILES	selectivity ratio [1]	EC50 (Chikungunya virus) [µM]	CC50 at 120 h [2] [µM]	solubility [3] [µM]	half-life [4] [min]
CCNc1nc(C)cc(N2CC3CCC(C2)N3C(=O)c2ccc(Cl)cc2)n1	5	17	84		
CCNc1nc(N2CCN(C(=O)c3ccc(Cl)c(Cl)c3)CC2)cc(C(F)(F)F)n1		> 100	> 100		
CCNc1cc(C)nc(N2CCN(S(=O)(=O)c3ccc(Cl)nc3)CC2)n1	0.8	121	97	115 (≈ 45.6 µg/mL)	
CCNc1cc(C)nc(N2CCC(NC(=O)c3cc(Cl)cc(Cl)c3)CC2)n1	< 0.48	> 100	48	52 (≈ 21.2 µg/mL)	
CCNc1nc(C)cc(N2CC3CN(C(=O)c4ccc(Cl)cc4)CC3C2)n1 (stereo not drawn)	23	3.2	72		
CCNc1nc(C)cc(N2CC3CCC(C2)N3C(=O)c2cc(Cl)cc(Cl)c2)n1		14		111 (≈ 46.7 µg/mL)	> 60
CCNc1nc(C)cc(N2CCN(C(=O)c3ccc(F)cc3F)CC2)n1	> 1	> 100	> 100		
CCNc1cc(C(F)(F)F)nc(N2CCN(C(=O)c3cccc(Br)c3)CC2)n1		41		0.8 (≈ 0.367 µg/mL)	17
CCNc1cc(C)nc(N2CC3CCC(C2)N3C(=O)c2ccc(Cl)cc2)n1	> 1.11	79	> 88		
O=C(c1ccc(Cl)c(Cl)c1)N1CCN(c2nc(C(F)(F)F)nc3[nH]cnc23)CC1		9.5		71 (≈ 31.6 µg/mL)	> 60
CCNc1nc(C)cc(N2CCN(C(=O)c3ccc(Cl)cc3Cl)CC2)n1	< 0.47	> 100	47	> 120	
CCNc1cc(C)nc(N2CCN(S(=O)(=O)c3cccs3)CC2)n1	1.8	103	180	68 (≈ 25 µg/mL)	
Cc1cc(N2CCN(S(=O)(=O)c3ccc(F)cc3)CC2)nc(N2CCCC2)n1	1.9	25	47	> 120	
CCNc1nc(N2CCN(C(=O)c3ccc(Br)cc3)CC2)cc(C(F)(F)F)n1		> 100	> 100	33 (≈ 15.1 µg/mL)	
CCNc1nc(C)cc(NC2CN(C(=O)c3cc(Cl)cc(Cl)c3)C2)n1		8.5		104 (≈ 39.5 µg/mL)	37
CCNc1cc(C(F)(F)F)nc(N2CCN(C(=O)c3ccc(Cl)c(Cl)c3)CC2)n1		> 6.3	> 25		36
CCNc1cc(C)nc(N2CC3CN(C(=O)c4ccc(Cl)cc4)CC3C2)n1 (stereo not drawn)	> 7.5	12	> 88		
CCNc1nc(C)cc(N2CCC3(CC2)CC(=O)c2ccccc2O3)n1		4.2		98 (≈ 34.5 µg/mL)	> 60
Cc1nc(Cl)c(N)c(N2CCN(C(=O)c3ccc(Cl)cc3)CC2)n1	> 1	> 88	> 88		
O=C(c1ccc(Cl)c(Cl)c1)N1CCN(c2ncnc3[nH]cnc23)CC1		66		104 (≈ 39.2 µg/mL)	
O=C(c1ccc(Cl)cc1)N1CCN(c2nc(C(F)(F)F)nc3[nH]cnc23)CC1		26		36 (≈ 14.8 µg/mL)	
CCNc1cc(C)nc(N2CC(NC(=O)c3cc(Cl)cc(Cl)c3)C2)n1		> 88		47 (≈ 17.9 µg/mL)	
CCNc1nccc(N2CCN(C(=O)c3ccc(F)cc3)CC2)n1	> 1.4	216	> 304	> 120	
O=C(c1cc(Cl)cc(Cl)c1)N1CCN(c2nc(Cl)nc3[nH]cnc23)CC1		18		66 (≈ 27.2 µg/mL)	> 60
CCNc1nc(C)cc(N2CCC3(CCN(C(=O)c4ccc(Cl)cc4)C3)C2)n1 (stereo not drawn)	2.5	18	45		
CCNc1cc(C)nc(NC2CN(C(=O)c3cc(Cl)cc(Cl)c3)C2)n1		> 100		93 (≈ 35.4 µg/mL)	
Nc1nc(N2CCN(C(=O)c3ccc(Cl)cc3)CC2)c2nc[nH]c2n1		> 100		116 (≈ 41.5 µg/mL)	

SMILES	selectivity ratio [1]	EC50 (Chikungunya virus) [µM]	CC50 at 120 h [2] [µM]	solubility [3] [µM]	half-life [4] [min]
O=C(c1cc(Cl)cc(Cl)c1)N1CCN(c2nc(C(F)(F)F)nc3[nH]cnc23)CC1		77		73 (≈ 32.5 µg/mL)	
CCNc1nc(C)cc(N2CC3CN(C(=O)c4cc(Cl)cc(Cl)c4)CC3C2)n1 (stereo not drawn)		19		109 (≈ 45.8 µg/mL)	> 60
Cc1cc(N(C)C)nc(N2CCN(C(=O)c3cc(Cl)cc(Cl)c3)CC2)n1		> 100	> 100	95 (≈ 37.5 µg/mL)	
Cc1nc(Cl)c(N)c(N2CCN(C(=O)c3ccc(Cl)c(Cl)c3)CC2)n1		9.8		118 (≈ 47.3 µg/mL)	> 60
CCNc1cc(C)nc(N2CC3CCC(C2)N3C(=O)c2cc(Cl)cc(Cl)c2)n1		> 100		97 (≈ 40.8 µg/mL)	
CCNc1cc(C)nc(N2CCN(C(=O)C3CCCCC3)CC2)n1	2.1	70	147	119 (≈ 39.4 µg/mL)	
CCNc1cc(C)nc(N2CCN(C(=O)c3cc(Cl)cc(Cl)c3)CC2)n1	> 1.5	67	> 100	11 (≈ 4.34 µg/mL)	
O=C(c1ccc(Cl)cc1)N1CCN(c2ncnc3[nH]cnc23)CC1		94		114 (≈ 39.1 µg/mL)	
Nc1nc(N2CCN(C(=O)c3ccc(Cl)c(Cl)c3)CC2)c2nc[nH]c2n1		> 100		106 (≈ 41.6 µg/mL)	
Cc1nc(N2CCN(C(=O)c3ccc(Cl)cc3)CC2)c2nc[nH]c2n1		97		84 (≈ 30 µg/mL)	
Cc1nc(N2CCN(C(=O)c3cc(Cl)cc(Cl)c3)CC2)c2nc[nH]c2n1		> 100		92 (≈ 36 µg/mL)	
CCNc1nc(C)cc(N2CC(NC(=O)c3cc(Cl)cc(Cl)c3)C2)n1		> 100		81 (≈ 30.8 µg/mL)	
Cc1cc(N2CCN(C(=O)c3cccc(Br)c3)CC2)nc(N(C)C)n1	> 1	100	> 100		
CCNc1cc(C)nc(N2CC3CN(C(=O)c4cc(Cl)cc(Cl)c4)CC3C2)n1 (stereo not drawn)		23		108 (≈ 45.4 µg/mL)	
CCNc1cc(C)nc(N2CCC3(CCN(C(=O)c4cc(Cl)cc(Cl)c4)C3)C2)n1 (stereo not drawn)		28		108 (≈ 46.9 µg/mL)	
CCNc1nc(C)cc(N2CCN(C(=O)c3ccc(C)cc3C)CC2)n1	> 1	> 100	> 100		
CCNc1cc(C)nc(N2CCC3(CCN(C(=O)c4ccc(Cl)cc4)C3)C2)n1 (stereo not drawn)	2.3	32	74		
CCNc1nc(C)cc(N2CCC(NC(=O)c3cc(Cl)cc(Cl)c3)CC2)n1		> 25	> 100	100 (≈ 40.8 µg/mL)	
CCNc1nc(C)cc(N2CCC3(CCN(C(=O)c4cc(Cl)cc(Cl)c4)C3)C2)n1 (stereo not drawn)		11		98 (≈ 42.6 µg/mL)	> 60
Cc1nc(Cl)c(N)c(N2CCN(C(=O)c3cc(Cl)cc(Cl)c3)CC2)n1		32		94 (≈ 37.7 µg/mL)	
CCNc1cc(C)nc(N2CCCC(NC(=O)c3cc(Cl)cc(Cl)c3)C2)n1 (stereo not drawn)	< 1.95	> 25	49	31 (≈ 12.7 µg/mL)	
CC(C)Nc1ccnc(N2CCN(S(=O)(=O)c3ccc(F)cc3)CC2)n1		10		100 (≈ 37.9 µg/mL)	46
CCNc1cc(C)nc(N2CCC3(CC2)CC(=O)c2ccccc2O3)n1		23		100 (≈ 35.2 µg/mL)	
O=C(c1cc(Cl)cc(Cl)c1)N1CCN(c2ncnc3[nH]cnc23)CC1		32		112 (≈ 42.3 µg/mL)	
Nc1nc(N2CCN(C(=O)c3cc(Cl)cc(Cl)c3)CC2)c2nc[nH]c2n1		> 100		47 (≈ 18.4 µg/mL)	
CCNc1cc(N2CCN(S(=O)(=O)c3ccc(F)cc3)CC2)ncn1		> 274		94 (≈ 34.4 µg/mL)	
